Experimental data: patent US9701645B2 (priority 2005, dated 2017)

Experiments:
haloperidol-treated rats = experiment: Locomotor activity in haloperidol treated rats; format: in vivo, rat; conditions: haloperidol treated rats, compound 15 minutes after haloperidol, 1, 3, 10 or 30 mg/kg, total counts over 1 h
Experimental: (§1) Behavioral parameters were monitored in transparent shoebox cages that measured 45×25×20 cm, with a 1-cm depth of wood chips on the cage floor and a plastic grid on top of the cage. Rectangular photocell monitors with a bank of 3 photocell beams surrounded each test cage. Ambulations (locomotor activity: total number of beam breaks in 1 hour) were recorded by computer and stored for each test session.
(§2) Animals were administered injections of dextrose, reserpine or haloperidol. Formula (i) or Formula (ii) was then administered 18 hours after reserpine at doses of 3, 10 or 30 mg/kg or 15 minutes after haloperidol at doses of 1, 3, 10 or 30 mg/kg. Animals were monitored over a 60-min period in all instances, and data are expressed as total counts over the entire 1 h test period. […] In these studies, clinically effective therapies such as dopamine replacement therapy restore locomotor activity in dopamine-depleted or dopamine antagonist treated animals. Dopamine replacement therapy also, however, produces an overshoot in locomotor activity beyond the locomotor counts observed with normal control animals (with intact dopamine systems). This is considered the activating component of dopamine replacement therapy that results in dyskinesias in Parkinson's patients.

kappa-opioid receptor = biological target: T1, kappa-opioid receptor (Cavia porcellus, UniProt P41144); conditions: known results of SNC80; read-out: Receptor Binding Affinity, Ki Kappa; cited from earlier work
T1 construct: kappa receptors from guinea pig cerebellar homogenate; from tissue; host or cells: guinea pig cerebellar homogenate (membrane fractions)
T1 sequence (P41144 whole entry): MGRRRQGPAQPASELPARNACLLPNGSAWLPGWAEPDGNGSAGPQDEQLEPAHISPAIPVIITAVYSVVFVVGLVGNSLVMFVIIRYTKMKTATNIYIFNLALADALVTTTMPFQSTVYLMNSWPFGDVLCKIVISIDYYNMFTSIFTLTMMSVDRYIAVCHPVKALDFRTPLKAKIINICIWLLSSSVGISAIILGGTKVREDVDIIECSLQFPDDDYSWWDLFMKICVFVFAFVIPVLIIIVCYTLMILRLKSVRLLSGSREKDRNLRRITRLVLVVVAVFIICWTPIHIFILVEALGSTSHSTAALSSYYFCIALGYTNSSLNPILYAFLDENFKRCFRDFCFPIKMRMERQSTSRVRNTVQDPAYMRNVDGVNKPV

mice [1] = experiment: Seizure-like convulsion incidence in mice; format: in vivo, mouse
From the text: One of the most obvious side-effects of potent delta agonists that rapidly penetrate the blood brain barrier is convulsive episodes reminiscent of possible seizure-like brain activity. The mouse is the chosen species for study of these effects since the mouse is the most highly convulsion-sensitive rodent species and mice present with a clear and obvious, whole body tonic-clonic convulsion. One of the earliest phases of delta agonist safety assessments is thus the determination of the convulsion threshold in mice.

[2] = test system: Parkinson's disease rodent models; experiment: Parkinson's disease rodent models (summary statements); format: in vivo, rat; conditions: oral
Experimental: as §1, §2
An opioid receptor agonist selective for the delta receptor. • 2. Active in Parkinson's disease rodent models. • a. Potent at improving locomotor activity of haloperidol-treated rats. • b. Potent at improving locomotor activity in reserpine treated rats. • 3. Orally active in Parkinson's disease rodent models. • a.

rats = conditions: cited from earlier work
mu-opioid receptor = biological target: T2, mu-opioid receptor (Rattus norvegicus, UniProt P33535); conditions: known results of SNC80; read-out: Receptor Binding Affinity, Ki Mu; cited from earlier work
T2 construct: delta and mu receptors from rat whole brain homogenate; from tissue; host or cells: rat whole brain homogenate (membrane fractions)
T2 sequence (P33535 whole entry): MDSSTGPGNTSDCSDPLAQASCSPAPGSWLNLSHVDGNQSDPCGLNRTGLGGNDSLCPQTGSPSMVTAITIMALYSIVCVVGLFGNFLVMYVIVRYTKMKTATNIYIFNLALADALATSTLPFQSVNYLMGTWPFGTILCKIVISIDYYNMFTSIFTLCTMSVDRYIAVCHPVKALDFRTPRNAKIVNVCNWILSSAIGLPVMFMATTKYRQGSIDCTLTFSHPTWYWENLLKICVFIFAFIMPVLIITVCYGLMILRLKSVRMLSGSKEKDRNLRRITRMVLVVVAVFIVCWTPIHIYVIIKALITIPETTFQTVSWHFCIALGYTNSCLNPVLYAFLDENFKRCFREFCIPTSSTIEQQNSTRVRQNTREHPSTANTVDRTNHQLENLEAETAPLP

mice [3] = conditions: cited from earlier work
[4] = test system: rats treated with reserpine or dopamine receptor antagonists (haloperidol or SCH23390); conditions: 10 mg/kg i.p.; cited from earlier work
MPTP-treated marmosets = conditions: cited from earlier work
reserpine treated rats = experiment: Locomotor activity in reserpine treated rats; format: in vivo, rat; conditions: compound 18 hours after reserpine, 3, 10 or 30 mg/kg, total counts over 1 h
Experimental: as §1, §2

C=CCN1C[C@H](C)N([C@H](c2ccc(C(=O)N(CC)CC)cc2)c2cccc(OC)c2)C[C@H]1C [SNC80]
Efficacy on locomotor activity (FIG. 1) (haloperidol-treated rats): clear efficacy | Ki (kappa-opioid receptor): 4.1 µM | Seizure-like convulsion incidence in mice (% of animals treated) (mice [1]; Intravenous 0.3 mg/kg): 0% | Seizure-like convulsion incidence in mice (% of animals treated) (mice [1]; Intravenous 1 mg/kg): 30% | Seizure-like convulsion incidence in mice (% of animals treated) (mice [1]; Intravenous 3 mg/kg): 100% | Oral activity in Parkinson's disease rodent models [2]: lack of oral activity | Seizure-like convulsions (Broom, et al., 2002) (rats): produce seizure-like convulsions | Ki (mu-opioid receptor): 4.8 µM | Seizure-like convulsions (Broom, et al., 2002) (mice [3]): produce seizure-like convulsions | Behavioral deficits (ambulatory behavior, grooming, rearing, social interaction and exploration, static investigation) [4]: restored behavioral deficits | Parkinsonian posture induced by MPTP treatment (MPTP-treated marmosets): not statistically reversed | Motor activity, bradykinesia and disability scores (MPTP-treated marmosets; similar dose levels (10 mg/kg)): restored motor activity, bradykinesia and disability scores to normal | Efficacy on locomotor activity (FIG. 1) (reserpine treated rats): clear efficacy
